We go through 1 substance from patent US20070149456A1, “Epithelial sodium channel inhibiting agents and uses therefor” (University of Pittsburgh, priority 2005, published 2007).

“Also recorded” adds a separate entry of the source.

This assay addresses T1, wild-type ENaC (Mus musculus, UniProt Q61180+Q9WU38+Q9WU39, DEL206-231).
T1 construct: expressed in transfected cells; host or cells: Xenopus laevis oocytes (cRNA injection)
T1 sequence (Q61180 with tags, fused parts or gaps DEL206-231): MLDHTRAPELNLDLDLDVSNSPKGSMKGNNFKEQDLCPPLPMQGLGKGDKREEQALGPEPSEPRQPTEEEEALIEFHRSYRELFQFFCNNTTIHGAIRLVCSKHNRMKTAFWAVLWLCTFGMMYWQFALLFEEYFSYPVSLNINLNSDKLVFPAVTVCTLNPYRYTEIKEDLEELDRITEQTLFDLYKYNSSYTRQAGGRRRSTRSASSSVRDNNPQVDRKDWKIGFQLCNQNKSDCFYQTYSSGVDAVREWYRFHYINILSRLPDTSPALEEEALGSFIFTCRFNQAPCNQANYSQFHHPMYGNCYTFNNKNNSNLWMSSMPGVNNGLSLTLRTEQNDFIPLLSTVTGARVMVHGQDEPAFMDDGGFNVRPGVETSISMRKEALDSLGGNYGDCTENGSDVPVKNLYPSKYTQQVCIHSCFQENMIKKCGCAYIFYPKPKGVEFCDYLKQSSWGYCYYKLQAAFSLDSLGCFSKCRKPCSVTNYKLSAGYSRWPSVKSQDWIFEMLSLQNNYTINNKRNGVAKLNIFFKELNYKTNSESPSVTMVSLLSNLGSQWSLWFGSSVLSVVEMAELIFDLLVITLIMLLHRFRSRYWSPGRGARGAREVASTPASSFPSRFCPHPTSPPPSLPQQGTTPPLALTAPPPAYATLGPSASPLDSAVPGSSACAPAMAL
T1 sequence (Q9WU38 1-638): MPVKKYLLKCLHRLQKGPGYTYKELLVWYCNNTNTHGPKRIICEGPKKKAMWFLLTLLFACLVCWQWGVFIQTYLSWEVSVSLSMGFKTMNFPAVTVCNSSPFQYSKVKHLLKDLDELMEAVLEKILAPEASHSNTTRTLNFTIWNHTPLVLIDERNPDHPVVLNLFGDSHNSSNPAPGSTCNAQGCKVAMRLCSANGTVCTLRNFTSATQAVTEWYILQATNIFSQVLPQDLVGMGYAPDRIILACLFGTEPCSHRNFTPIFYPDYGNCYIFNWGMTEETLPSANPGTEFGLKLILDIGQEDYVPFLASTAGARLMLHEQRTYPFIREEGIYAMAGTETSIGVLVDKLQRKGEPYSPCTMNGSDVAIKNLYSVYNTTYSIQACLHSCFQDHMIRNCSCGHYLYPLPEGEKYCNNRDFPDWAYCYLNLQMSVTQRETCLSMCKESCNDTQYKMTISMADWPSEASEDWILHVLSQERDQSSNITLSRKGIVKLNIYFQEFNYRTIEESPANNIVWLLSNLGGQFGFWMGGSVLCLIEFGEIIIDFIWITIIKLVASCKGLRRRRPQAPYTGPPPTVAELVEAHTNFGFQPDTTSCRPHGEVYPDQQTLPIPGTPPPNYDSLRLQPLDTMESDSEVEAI
T1 sequence (Q9WU39 1-655): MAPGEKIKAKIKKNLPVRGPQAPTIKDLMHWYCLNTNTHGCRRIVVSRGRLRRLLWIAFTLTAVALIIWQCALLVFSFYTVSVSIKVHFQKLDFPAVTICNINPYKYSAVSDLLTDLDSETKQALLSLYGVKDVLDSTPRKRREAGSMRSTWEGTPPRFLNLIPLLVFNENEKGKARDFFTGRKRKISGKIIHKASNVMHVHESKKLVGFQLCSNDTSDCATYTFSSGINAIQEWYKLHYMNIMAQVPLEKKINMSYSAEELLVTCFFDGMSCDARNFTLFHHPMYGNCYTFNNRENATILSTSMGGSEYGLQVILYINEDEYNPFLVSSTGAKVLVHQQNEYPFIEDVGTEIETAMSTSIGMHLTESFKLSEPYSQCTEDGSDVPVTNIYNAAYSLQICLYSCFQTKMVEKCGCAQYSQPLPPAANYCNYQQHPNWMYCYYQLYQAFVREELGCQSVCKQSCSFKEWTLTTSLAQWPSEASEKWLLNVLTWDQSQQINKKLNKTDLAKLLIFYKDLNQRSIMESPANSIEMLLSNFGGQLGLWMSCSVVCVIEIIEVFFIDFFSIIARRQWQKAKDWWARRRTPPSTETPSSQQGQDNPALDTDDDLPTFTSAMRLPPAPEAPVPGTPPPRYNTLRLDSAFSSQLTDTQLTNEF
The assay can be described thus: Single channel cell-attached patch clamp in oocytes expressing wild-type ENaC, pipette back filled with peptide. The format is cell-based. Here is the method:
Single Channel Studies—Bath and pipette solutions contained (in mM) 110 LiCl, 2 CaCl2, 2 KCl, and 10 Hepes, pH 7.4. Experiments were performed as previously described (Carattino, M. D., Sheng, S., and Kleyman, T. R. (2005), Mutations in the pore region modify epithelial sodium channel gating by shear stress, J Biol. Chem. 280, 4393-4401 33). Single channel currents were recorded in the cell-attached configuration of patch clamp, acquired at 5 kHz and filtered at 1 kHz by a 4-pole low pass Bessel filter. Single channel currents were further filtered at 100-200 Hz with a Gaussian filter for display and analysis. Recordings were performed at an applied pipette potential of +60 mV.
For experiments performed with α-26, the tip of the pipette was filled with standard patch solution. Pipette resistances were similar in control (7.8±0.4 MΩ) and α-26-treated patches (6.9±0.6 MΩ) (p=0.30, unpaired t test). […] Unitary currents, at an applied pipette potential of +60 mV, were similar in both control (0.42±0.2 pA, n=5) and α-26-containing patches (0.39±0.2 pA, n=7) (p=0.32, unpaired t test). […] At the beginning of the experiment open times were similar to that observed in controls (FIG. 4B). Over the course of the experiment openings decreased and were shorter in duration compared with control until channels were fully closed. […]

“Ac-DLRGALPHPLQRLRTPPPPNPARSAR-NH2 [α-26]” gave a unitary currents (applied pipette potential +60 mV, α-26 10 μM in pipette) of 0.39±0.2 pA. Where the note is “pipette backfilled with α-26 10 μM”, the “product of the number of channels and open probability (NPo) compared with controls” value is on record as “reduces ENaC open probability; also recorded: reduction”.
